Experimental data as given in patent publication US8790874B2, “Device for investigation of a flow conduit” (priority 2008, dated 2014).

What was measured:
Format in all cases: cell-based
mesenteric arteries [1] = assay: PE dose response of mesenteric arteries, conventional pipette cannulation setup; settings: 3.0 μM PE applied to exterior surface, n=5
Description: The device may be used to investigate responses of biological flow conduits. […] In this example, PE was applied to the exterior surface of the flow conduit, and the dose of PE was changed in a stepwise fashion.

mouse mesenteric artery = assay: FURA-2 Ca2+ ratiometric measurements on a mesenteric artery fixed on the device; settings: stimulation with 3.0 μM PE; return to baseline following washout
Description: The smooth muscle cells in the artery are stained.

mouse mesenteric vessel = assay: Constriction of a mesenteric vessel in the device, single dose of PE; settings: 3.0 μM PE, representative tracing
Procedure: In another example, the device was used to investigate a mesenteric vessel. […] In this example, a mouse mesenteric vessel was used, and a single does of PE was administered. The PE was applied to the exterior surface of the flow conduit. a) is a representative tracing of a mesenteric vessel's response to 3.0 μM PE, with a sustained constriction of 41.8%, measured in freshly isolated arteries that were immediately subjected to the stimulation with PE. b) is a representative tracing of a single mesenteric vessel kept in culture for 24 hours on the device prior to testing the response to PE, showing a sustained constriction of 41.4% to 3.0 μM PE.

mesenteric arteries [2] = assay: PE dose response of mesenteric arteries measured using the device; settings: 3.0 μM PE applied to exterior surface, n=5
Description: An example process of loading a flow conduit, in this case an artery, into this example embodiment of the device is now described. The device was initially flushed with a Bovine serum albumin (BSA) solution to prevent any unwanted adhesion of arteries to the walls of the main channel or culture chamber. […] As an alternative to the reversible fixation of the artery used here, an irreversible fixation method may be used, as discussed above.
Upon fixation (e.g., using a reversible fixation method), the lumen of the artery was perfused by operating a syringe pump, connected to an inlet of the culture channel, in the perfusion mode. By connecting the inlet and outlet of the culture channel to different hydrostatic pressure levels, a flow through the culture chamber was achieved while maintain a defined transmural pressure difference across the wall of the artery. A flow through the culture chamber was achieved while maintaining a defined transmural pressure difference (i.e., P1−P3 in FIG. 1) by superfusing the culture chamber with a second syringe pump that operates in the perfusion mode, connected at the inlet of the culture channel. The outlet of the culture channel was thus led to a reduced hydrostatic pressure level. […]

Compound: CNC[C@H](O)c1cccc(O)c1 [PE, phenylephrine]
- maximal outer diameter constriction (mesenteric arteries [1]): 44.5+/−2.5%
- FURA-2 ratio (F340nm/F380nm) (mouse mesenteric artery): increase in FURA-2 ratio
- sustained constriction (mouse mesenteric vessel; freshly isolated arteries, immediately stimulated): 41.8%
- sustained constriction (mouse mesenteric vessel; vessel kept in culture for 24 hours on the device before testing): 41.4%
- maximal outer diameter constriction (mesenteric arteries [2]): 42.2+/−3.8%
